In patent US10058094B2, “Antimicrobial sanitizer compositions and methods of making the same” (priority 2013, dated 2018):

How the values were obtained:
[1] = test system: Salmonella typhi ATCC 6539; assay: Chlorine equivalence test; assay type: cell-based; parameters: key to growth of organism, Subculture Series 8 / growth of organism, Subculture Series 9 / growth of organism, Subculture Series 10 / growth of organism, Subculture Series 1 / growth of organism, Subculture Series 2 / growth of organism, Subculture Series 3 / growth of organism, Subculture Series 4 / growth of organism, Subculture Series 5 / growth of organism, Subculture Series 6 / growth of organism, Subculture Series 7: growth of organism (+); no growth of organism (0); conditions: for growth of organism, Subculture Series 1 / growth of organism, Subculture Series 2 / growth of organism, Subculture Series 3 / growth of organism, Subculture Series 4 / growth of organism, Subculture Series 5 / growth of organism, Subculture Series 6 / growth of organism, Subculture Series 7 / growth of organism, Subculture Series 8 / growth of organism, Subculture Series 9 / growth of organism, Subculture Series 10: Salmonella typhi
Procedure: (§1) The Table 1 sanitizer was tested to determine its efficiency at reducing bacteria on the skin via a chlorine equivalence test. Samples were prepared of Staphylococcus aureus ATCC 6538 (7.6×10^8 colony forming units per mL of text mixture) and Salmonella typhi ATCC 6539 (1.2×10^8 colony forming units per mL of text mixture). The samples were then treated against a NaOCl control at 200 ppm, 100 ppm, and 50 ppm, as well as the sanitizer disclosed herein. Thereafter, ten subculture series were taken.

[2] = test system: Staphylococcus aureus ATCC 6538; assay: Chlorine equivalence test; assay type: cell-based; parameters: key to growth of organism, Subculture Series 8 / growth of organism, Subculture Series 9 / growth of organism, Subculture Series 10 / growth of organism, Subculture Series 1 / growth of organism, Subculture Series 2 / growth of organism, Subculture Series 3 / growth of organism, Subculture Series 4 / growth of organism, Subculture Series 5 / growth of organism, Subculture Series 6 / growth of organism, Subculture Series 7: growth of organism (+); no growth of organism (0); conditions: for growth of organism, Subculture Series 1 / growth of organism, Subculture Series 2 / growth of organism, Subculture Series 3 / growth of organism, Subculture Series 4 / growth of organism, Subculture Series 5 / growth of organism, Subculture Series 6 / growth of organism, Subculture Series 7 / growth of organism, Subculture Series 8 / growth of organism, Subculture Series 9 / growth of organism, Subculture Series 10: Staphylococcus aureus
Procedure: as §1

[Na+].[O-]Cl [NaOCl]
eventually showed growth of organisms: growth of organisms over the ten subculture series ([1]; Salmonella typhi ATCC 6539, NaOCl control at 200 ppm, 100 ppm, and 50 ppm, ten subculture series) | growth of organisms over the ten subculture series ([2]; Staphylococcus aureus ATCC 6538, NaOCl control at 200 ppm, 100 ppm, and 50 ppm, ten subculture series)
0: growth of organism, Subculture Series 1 ([1]; concentration 50 ppm) | growth of organism, Subculture Series 2 ([1]; concentration 50 ppm) | growth of organism, Subculture Series 1 ([1]; concentration 100 ppm) | growth of organism, Subculture Series 2 ([1]; concentration 100 ppm) | growth of organism, Subculture Series 3 ([1]; concentration 100 ppm) | growth of organism, Subculture Series 1 ([1]; concentration 200 ppm) | growth of organism, Subculture Series 2 ([1]; concentration 200 ppm) | growth of organism, Subculture Series 3 ([1]; concentration 200 ppm) | growth of organism, Subculture Series 4 ([1]; concentration 200 ppm) | growth of organism, Subculture Series 5 ([1]; concentration 200 ppm) | growth of organism, Subculture Series 6 ([1]; concentration 200 ppm) | growth of organism, Subculture Series 1 ([2]; concentration 50 ppm) | growth of organism, Subculture Series 1 ([2]; concentration 100 ppm) | growth of organism, Subculture Series 2 ([2]; concentration 100 ppm) | growth of organism, Subculture Series 1 ([2]; concentration 200 pm) | growth of organism, Subculture Series 3 ([2]; concentration 200 pm) | growth of organism, Subculture Series 2 ([2]; concentration 200 ppm) | growth of organism, Subculture Series 4 ([2]; concentration 200 ppm) | growth of organism, Subculture Series 5 ([2]; concentration 200 ppm)
+: growth of organism, Subculture Series 3 ([1]; concentration 50 ppm) | growth of organism, Subculture Series 4 ([1]; concentration 50 ppm) | growth of organism, Subculture Series 5 ([1]; concentration 50 ppm) | growth of organism, Subculture Series 6 ([1]; concentration 50 ppm) | growth of organism, Subculture Series 7 ([1]; concentration 50 ppm) | growth of organism, Subculture Series 8 ([1]; concentration 50 ppm) | growth of organism, Subculture Series 9 ([1]; concentration 50 ppm) | growth of organism, Subculture Series 10 ([1]; concentration 50 ppm) | growth of organism, Subculture Series 4 ([1]; concentration 100 ppm) | growth of organism, Subculture Series 5 ([1]; concentration 100 ppm) | growth of organism, Subculture Series 6 ([1]; concentration 100 ppm) | growth of organism, Subculture Series 7 ([1]; concentration 100 ppm) | growth of organism, Subculture Series 8 ([1]; concentration 100 ppm) | growth of organism, Subculture Series 9 ([1]; concentration 100 ppm) | growth of organism, Subculture Series 10 ([1]; concentration 100 ppm) | growth of organism, Subculture Series 7 ([1]; concentration 200 ppm) | growth of organism, Subculture Series 8 ([1]; concentration 200 ppm) | growth of organism, Subculture Series 9 ([1]; concentration 200 ppm) | growth of organism, Subculture Series 10 ([1]; concentration 200 ppm) | growth of organism, Subculture Series 2 ([2]; concentration 50 ppm) | growth of organism, Subculture Series 3 ([2]; concentration 50 ppm) | growth of organism, Subculture Series 4 ([2]; concentration 50 ppm) | growth of organism, Subculture Series 5 ([2]; concentration 50 ppm) | growth of organism, Subculture Series 6 ([2]; concentration 50 ppm) | growth of organism, Subculture Series 7 ([2]; concentration 50 ppm) | growth of organism, Subculture Series 8 ([2]; concentration 50 ppm) | growth of organism, Subculture Series 9 ([2]; concentration 50 ppm) | growth of organism, Subculture Series 10 ([2]; concentration 50 ppm) | growth of organism, Subculture Series 3 ([2]; concentration 100 ppm) | growth of organism, Subculture Series 4 ([2]; concentration 100 ppm) | growth of organism, Subculture Series 5 ([2]; concentration 100 ppm) | growth of organism, Subculture Series 6 ([2]; concentration 100 ppm) | growth of organism, Subculture Series 7 ([2]; concentration 100 ppm) | growth of organism, Subculture Series 8 ([2]; concentration 100 ppm) | growth of organism, Subculture Series 9 ([2]; concentration 100 ppm) | growth of organism, Subculture Series 10 ([2]; concentration 100 ppm) | growth of organism, Subculture Series 8 ([2]; concentration 200 pm) | growth of organism, Subculture Series 10 ([2]; concentration 200 pm) | growth of organism, Subculture Series 6 ([2]; concentration 200 ppm) | growth of organism, Subculture Series 7 ([2]; concentration 200 ppm) | growth of organism, Subculture Series 9 ([2]; concentration 200 ppm)
